One may read the melting point as the temperature of the solid-liquid transition. `C=C(C(=O)OC)[C@@H](O)c1ccccc1` (single isomer, unassigned) yielded a melting point of 48 °C. To `C=C(C(=O)OC)C(O)c1ccccc1` (single isomer, unassigned) belongs 51 °C.

These data come from patent US7091354B2, “Processes for the preparation of peripheral opioid antagonist compounds and intermediates thereto” (Adolor Corporation, priority 2002, dated 2006).
